Laboratory results as given in US10473645B2, “Methods for identifying a receptor for a ligand and uses thereof” (UNIVERSITE DE GENEVE, priority 2014, dated 2019).

Key:
[1] = system: OSNs expressing olfr160; test: pS6 immunolabeling with OR in situ hybridization after odorant exposure; type: in vivo, mouse; conditions: 5% acetophenone, 60 minutes
Method: (§1) In order to independently validate the identity of an acetophenone receptor obtained with the RNAseq approach, the potential colocalization following acetophenone exposure of a neuronal activity marker (the phosphorylated ribosomal protein S6 (pS6) (Knight et al., 2012, Cell, 151, 1126-1137) and specific olfactory receptors were evaluated. To this aim, in-situ hybridizations were performed on sections of olfactory tissue with probes targeting receptor mRNAs followed by immunolabeling of pS6. The probes used were directed against the transcripts of most of the ORs determined as responsive including Olfr983 transcripts (encoding a known acetophenone receptor), Olfr171 transcripts (encoding a known ethyl isobutyrate receptor), and Olfr145 transcripts, encoding a newly identified receptor by RNAseq. Before analysis, mice were exposed to either 5% acetophenone, 5% ethyl isobutyrate, or a negative control condition for 60 minutes. […] 66% (Olfr983) and 70% (Olfr145) of the neurons were positive for pS6 after acetophenone exposure, while only 11% of the neurons expressing Olfr171 were positive for pS6 after exposure to this compound.

[2] = system: OSNs expressing olfr143; test: as above; type: in vivo, mouse; conditions: 5% acetophenone, 60 minutes
Method: as §1

[3] = system: OSNs expressing olfr478; test: as above; type: in vivo, mouse; conditions: 5% acetophenone, 60 minutes
Method: as §1

[4] = system: OSNs expressing olfr556; test: as above; type: in vivo, mouse; conditions: 5% acetophenone, 60 minutes
Method: as §1

[5] = system: OSNs expressing olfr229; test: as above; type: in vivo, mouse; conditions: 5% acetophenone, 60 minutes
Method: as §1

[6] = system: OSNs expressing olfr1377; test: as above; type: in vivo, mouse; conditions: 5% acetophenone, 60 minutes
Method: as §1

[7] = system: neurons expressing Olfr983; test: as above; type: in vivo, mouse; conditions: 60 minutes
Method: as §1

[8] = system: OSNs expressing olfr935; test: as above; type: in vivo, mouse; conditions: 5% acetophenone, 60 minutes
Method: as §1

[9] = system: OSNs expressing olfr30; test: as above; type: in vivo, mouse; conditions: 5% acetophenone, 60 minutes
Method: as §1

[10] = system: OSNs expressing olfr745; test: as above; type: in vivo, mouse; conditions: 5% acetophenone, 60 minutes
Method: as §1

[11] = system: Olfr983; conditions: expressed in HEK cells; previously shown; read-out: EC50 as agonist of Olfr983; cited from earlier work
[12] = system: Olfr171-expressing neurons; test: pS6 immunolabeling with OR in situ hybridization after odorant exposure; set-up: species or system mouse; conditions: 5% odorant, 60 minutes, in vivo
Method: as §1

[13] = biological target: T1, Olfr556 (Mus musculus, UniProt B2RRG2); test: OR transcript level by RT-qPCR after in vivo odorant exposure; set-up: from tissue; host or cells: main olfactory epithelium of exposed mice; key to olfr556 candidate OR (RNAseq) confirmed by qPCR: The transcript downregulation of 21 out of the 26 olfactory receptor candidates obtained by RNAseq was confirmed by qPCR; false RNAseq positive candidates, namely OR candidates for which in fact mRNA was not downregulated following acetophenone exposure; conditions: for Olfr556 mRNA level relative to unexposed controls: 5% odorant, 5 hours, in vivo, RT-qPCR
T1 sequence (B2RRG2 1-324): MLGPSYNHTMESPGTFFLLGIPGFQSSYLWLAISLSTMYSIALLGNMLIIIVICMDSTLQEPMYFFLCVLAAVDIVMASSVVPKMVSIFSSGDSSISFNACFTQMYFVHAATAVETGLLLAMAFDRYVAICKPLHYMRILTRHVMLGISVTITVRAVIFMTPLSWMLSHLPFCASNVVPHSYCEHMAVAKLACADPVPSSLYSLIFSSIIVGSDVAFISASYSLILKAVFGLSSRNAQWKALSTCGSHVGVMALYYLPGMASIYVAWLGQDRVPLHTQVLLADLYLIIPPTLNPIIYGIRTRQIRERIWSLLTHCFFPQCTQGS
Method: In vivo exposure to odorant: Starting 48 h before experiments, mice were habituated to pure DMSO on a cotton ball. 200 μl were pipetted directly onto the cotton and placed in the cage, replacing any cotton that was already in the cage for nest-making purposes.
On the day of the experiment, mice receiving odorants were transferred to a different room, where they were exposed to a cotton ball on which 200 μl of odorant diluted in pure DMSO were deposited. […] […] If a number of different odorants were tested in the same experiment, a different overpressurized room would always be used for each odorant to avoid odor cross-contamination.
After odorant exposure, mice were killed by cervical dislocation and immediately decapitated. The main olfactory epithelia (MOE), were harvested in their entirety and transferred to a tube containing 600 μl of lysis buffer and β-mercaptoethanol (RNAeasy kit, Qiagen, following the manufacturer protocol) and a 0.5 cm diameter steel ball, and then put on ice. Samples were then homogenized using a FastPrep®-24 instrument (MP Biomedicals) at 6 m/s for 30 s and left on ice. RNA extraction was performed on all samples in parallel using the Qiagen RNeasy Mini® kit following the manufacturer's instructions. Two DNase treatments were performed on all samples: first using the Qiagen RNase-Free DNase Set® and then using the Life Technologies Ambion DNase I® kit. RNA samples were then aliquoted and stored at −80° C.
RNA concentrations were determined using an Amersham Ultrospec® 3100 Pro spectrophotometer, and RNA quality was evaluated with an Agilent Technologies 2100 Bioanalyzer®. Each reverse transcription was performed with 0.5 μg RNA using the Takara Primescript® kit, in a final volume of 10 μl. Primers for reverse transcription were equal mixtures of poly-T nucleotides and random hexamers. Negative controls (omitting the reverse transcriptase enzyme) were performed for each sample. 1/14th of the cDNA preparation was used for each triplicated qPCR reaction.
qPCR Ct values were analyzed using an in-house developed Microsoft Excel® macro file. Triplicate values were compared and outliers (values with a difference higher than 0.5 Ct to their nearest neighbor) were discarded. The number of conditions with an outlying value was always less than 10% of the total number of conditions. Ct values were converted to quantities relative to the maximum for each given gene. Selected reference genes were then analyzed for variance using the geNorm algorithm. All values were normalized with the olfactory tissue-specific genes Omp and Adcy3. β-Actin was used as a non-tissue-specific reference gene to control for differences in dissection between samples. […]

Structure (SMILES): CC(=O)c1ccccc1 [acetophenone]
- olfr160 ps6 positive [1]: y (neuronal activation (i.e. pS6 signal in a fraction of neuron exceeding 15% relative to controls))
- olfr143 ps6 positive [2]: y (neuronal activation (i.e. pS6 signal in a fraction of neuron exceeding 15% relative to controls))
- olfr478 ps6 positive [3]: y (neuronal activation (i.e. pS6 signal in a fraction of neuron exceeding 15% relative to controls))
- olfr556 ps6 positive [4]: y (neuronal activation (i.e. pS6 signal in a fraction of neuron exceeding 15% relative to controls))
- olfr229 ps6 positive [5]: y (neuronal activation (i.e. pS6 signal in a fraction of neuron exceeding 15% relative to controls))
- olfr1377 ps6 positive [6]: y (neuronal activation (i.e. pS6 signal in a fraction of neuron exceeding 15% relative to controls))
- olfr983 ps6 positive ([7]; 5% acetophenone): y (neuronal activation (i.e. pS6 signal in a fraction of neuron exceeding 15% relative to controls))
- fraction of Olfr983-expressing neurons positive for pS6 ([7]; 5% odorant, in vivo): 66%
- olfr935 ps6 positive [8]: y (neuronal activation (i.e. pS6 signal in a fraction of neuron exceeding 15% relative to controls))
- olfr30 ps6 positive [9]: y (neuronal activation (i.e. pS6 signal in a fraction of neuron exceeding 15% relative to controls))
- olfr745 ps6 positive [10]: y (neuronal activation (i.e. pS6 signal in a fraction of neuron exceeding 15% relative to controls))
- EC50 [11]: < 50 µM
- fraction of Olfr171-expressing neurons positive for pS6 [12]: 11%
- olfr556 candidate OR (RNAseq) confirmed by qPCR ([13]; 5% acetophenone exposure): y
- Olfr556 mRNA level relative to unexposed controls [13]: decrease
- Olfr556 mRNA level relative to unexposed controls ([13]; listed as Acetophenone): downregulates
